The record followed here is PubChem BioAssay AID1996.

Converted amounts (≈) assume the structure as drawn.

The conditions of this data set: buffer; pH 7.4; 200.0 µM.
As to `COc1ccc(NC(=O)c2cccnc2)cc1`, the solubility (kinetic) (as a rule, solubility judged after dilution from a stock solution rather than from solid) is over 34.2 µg/mL. `CN1CCCN(C(=O)c2c(F)cccc2Cl)CC1`: the solubility (kinetic) was over 40.6 µg/mL. As to `COc1ccc(C(=O)CCC(=O)Nc2cccnc2)cc1`, the kinetic solubility was over 42.6 µg/mL. With `CCOc1ccc(N2C(=O)/C(=C/c3ccc(C)o3)C(=O)NC2=S)cc1` the figure was over 53.5 µg/mL. `O=C(O)c1ccc(N=C2NC(=O)C(CO)(CO)S2)cc1` came in with a kinetic solubility of over 44.4 µg/mL.

`O=C(Nc1ccc(F)cc1)c1cccc2ccccc12` yielded a solubility (kinetic) of under 0.6 µg/mL. With `O=C1c2ccccc2C(=O)N1CCCn1ccnc1` the figure was over 38.3 µg/mL. With `Cc1ccc2c(c1)N(CC(=O)N1CCCC(C)C1)C(=O)CO2` (configuration not stated), the solubility (kinetic) was 45.3 µg/mL (≈ 150 µM). With `Cn1cccc1C(=O)OCc1cc(-c2ccco2)on1` the figure was 13.8 µg/mL (≈ 50.7 µM); with `CCNC(=S)NNC(=O)c1ccc(S(=O)(=O)NCc2ccco2)cc1`, over 57.4 µg/mL. With `O=C(CSc1nc2ccccc2[nH]1)c1c[nH]c2ccccc12` the figure was 0.6 µg/mL (≈ 1.95 µM); with `COC(=O)C(C)Oc1ccc(-c2nccc(-c3ccccn3)n2)cc1` (configuration not stated), 3.3 µg/mL (≈ 9.84 µM); with `O=S(=O)(c1ccc(Cl)s1)N1CCNCC1`, over 40 µg/mL.

In turn, `COc1ccc(CNC(=S)NC2CCCCC2)cc1` came in with a solubility (kinetic) of 38.4 µg/mL (≈ 138 µM). Take `COc1cccc(NC(=O)CN2C(=O)NC(C)(C3CC3)C2=O)c1` (configuration not stated): the kinetic solubility is over 47.6 µg/mL. To `Cc1cccc(C)c1OCc1cc(C(=O)NC2CCC(O)CC2)no1` (configuration not stated) belongs 19.4 µg/mL (≈ 56.3 µM). The molecule `Cn1ncc(C(=O)Nc2ccc(Cl)cc2)c1C(F)(F)F` showed a kinetic solubility of over 45.6 µg/mL. With `Cc1nnc(SCC(=O)Nc2ccc(N(C)C)cc2)n(N)c1=O`, the solubility (kinetic) is over 50.2 µg/mL. With `Cc1cccc(CC(=O)Nc2ccon2)c1` the figure was over 32.4 µg/mL; with `CCNC(=O)c1ccccc1CCc1ccccc1`, 32.7 µg/mL (≈ 129 µM).

Molecule `COc1ccc(NC(=O)NC2CCCc3ccccc32)c(OC)c1` (configuration not stated) came in with a solubility (kinetic) of 1 µg/mL (≈ 3.06 µM). `COc1cc2c(cc1OC)C(C)N(C(=O)c1c(C)noc1C)CC2` (configuration not stated): the solubility (kinetic) is 2.7 µg/mL (≈ 8.17 µM). On to `O=C(O)C1C2C=CC(C2)C1C(=O)NCc1ccc(Cl)cc1Cl` (configuration not stated), for which the kinetic solubility was 45.3 µg/mL (≈ 133 µM). Molecule `O=C(COC(=O)C1CCCC1)Nc1cccc(Cl)c1Cl` displayed a kinetic solubility of 5.9 µg/mL (≈ 18.7 µM).

Molecule `COC(=O)[C@H](C)NC(=O)Nc1cccc(Br)c1` showed a solubility (kinetic) of over 45.2 µg/mL. Take `COc1ccccc1CN(C)C(=O)c1ccc(S(=O)(=O)Nc2c(C)n(C)n(-c3ccccc3)c2=O)cc1`: the kinetic solubility was over 78.1 µg/mL. `COc1ccccc1CNC(=O)COC(=O)C1CC1`: the solubility (kinetic) is over 39.5 µg/mL. To `CCCOc1cccc(C(=O)Nc2ccc(CN3CCOCC3)cc2)c1` belongs 47.2 µg/mL (≈ 133 µM); to `CCCn1c(SCC(=O)N2CC(=O)Nc3ccccc32)n[nH]c1=O`, over 52.1 µg/mL; to `Cc1ccc(/C=C/C(=O)O)cc1S(=O)(=O)N1CCc2ccccc21`, over 51.5 µg/mL. To `Cc1cc(F)c(F)c(C(=O)N2C(C)CCCC2C)c1Cl` (configuration not stated) belongs 14.5 µg/mL (≈ 48.1 µM); to `COc1ccc(/C=C/C(=O)NC(=S)N2CCN(C)CC2)cc1`, over 47.9 µg/mL. As to `CC1CCCCC12NC(=O)N(CC(=O)OCC(=O)Nc1ccc(F)cc1[N+](=O)[O-])C2=O` (configuration not stated), the solubility (kinetic) was 7.5 µg/mL (≈ 17.2 µM).

With `CC(=O)c1cccc(NC(=O)C(CC(C)C)NC(=O)C2CCCCC2)c1` (configuration not stated), the kinetic solubility worked out at 20.2 µg/mL (≈ 56.3 µM). In the case of `O=C(Nc1cc(Cl)cc(Cl)c1)C1CCCC1`, the solubility (kinetic) is under 0.6 µg/mL. With `Cn1cncc1C(=O)c1ccccc1` the figure was over 27.9 µg/mL; with `Cc1cccc(N2CCN(C(=O)c3oc4ccc(Br)cc4c3C)CC2)c1C`, 4.3 µg/mL (≈ 10.1 µM); with `CCN(CC)c1ccc(C(=O)c2cnc(/N=C/N(C)C)s2)cc1`, 48.6 µg/mL (≈ 147 µM).

Regarding `O=C(Nc1cccc(S(=O)(=O)N2CCOCC2)c1)C12CC3CC(CC(C3)C1)C2`, the kinetic solubility was 2.2 µg/mL (≈ 5.44 µM). In turn, `Cl.O=S(=O)(N1CCCCCC1)N1CCNCC1` had a kinetic solubility of over 42.6 µg/mL.

Molecule `Cc1cccc2sc(NC(=O)CN3C(=O)NC4(CCCC4)C3=O)nc12` showed a kinetic solubility of 46.6 µg/mL (≈ 130 µM). Consider `FC(F)(F)c1cccc(OCc2noc(-c3ccsc3)n2)c1`, for which the solubility (kinetic) was under 0.3 µg/mL. As for `CSc1cccc(NC(=O)CCCNC(=O)c2ccc(Cl)cc2)c1`, the solubility (kinetic) is 4.5 µg/mL (≈ 12.4 µM). To `Cc1ccc(NC(=O)C(=O)NCCCN2CC(C(=O)O)CC2=O)cc1` (configuration not stated) belongs over 52.1 µg/mL. For the molecule `Cc1cc(C(=O)COC(=O)c2cccc(NS(C)(=O)=O)c2)c(C)n1CC1CCCO1` (configuration not stated), the solubility (kinetic) worked out at 43.5 µg/mL (≈ 100 µM). To `Nc1nc(NCc2ccco2)nc(Nc2cccc(F)c2)c1[N+](=O)[O-]` belongs 0.3 µg/mL (≈ 0.871 µM); to `Cn1c(SCC(=O)NC2CCCC2)nnc1-c1ccncc1`, over 47.6 µg/mL; to `Cc1c(NC(=S)NC(=O)c2ccc(Cl)cc2)c(=O)n(-c2ccccc2)n1C`, over 60.1 µg/mL.

As to `COc1ccccc1Nc1ncccc1[N+](=O)[O-]`, the kinetic solubility is 1.2 µg/mL (≈ 4.89 µM). In turn, `C=CCNC(=O)c1ccccc1NC(=O)C1CC(=O)N(C(C)C)C1` (configuration not stated) had a kinetic solubility of over 49.4 µg/mL. For the molecule `CN(C)C(=O)CN1C(=O)NC2(CCCc3ccccc32)C1=O` (configuration not stated), the solubility (kinetic) is over 45.2 µg/mL.

Molecule `C=CCn1cccc(C(=O)Nc2ccc(SC)cc2)c1=O` registered a kinetic solubility of 38.5 µg/mL (≈ 128 µM).
